Assay results reported in PubChem BioAssay (NCI).
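48-hour exposure; five concentrations; linearly interpolated endpoints. TGI is the concentration that stops growth completely.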

What was measured:
Assay in all cases: inhibition of tumour cell growth, NCI panel, 48 h
[1] = tested on: SN12C renal
[2] = tested on: DU-145 prostate
[3] = tested on: SK-MEL-5 melanoma
[4] = tested on: PC-3 prostate
[5] = tested on: U251 CNS
[6] = tested on: NCI-H522 lung
[7] = tested on: A549 NSCLC
[8] = tested on: SW-620 colon
[9] = tested on: SF-539 CNS
[10] = tested on: BT-549 breast
[11] = tested on: ACHN renal
[12] = tested on: RPMI-8226 leukemia
[13] = tested on: T-47D breast
[14] = tested on: HOP-62 NSCLC
[15] = tested on: M14 melanoma
[16] = tested on: MALME-3M melanoma
[17] = tested on: HCT-116 colon
[18] = tested on: SF-268 CNS
[19] = tested on: SK-MEL-2 melanoma
[20] = tested on: SK-MEL-28 melanoma
[21] = tested on: NCI-H460 lung
[22] = tested on: NCI/ADR-RES ovarian
[23] = tested on: 786-0 renal
[24] = tested on: OVCAR-3 ovarian
[25] = tested on: SNB-19 CNS
[26] = tested on: MDA-MB-435
[27] = tested on: HS 578T breast
[28] = tested on: LOX IMVI melanoma
[29] = tested on: OVCAR-5 ovarian
[30] = tested on: UACC-257 melanoma
[31] = tested on: SK-OV-3 ovarian
[32] = tested on: MDA-MB-231 breast
[33] = tested on: SNB-75 CNS
[34] = tested on: HCC-2998 colon
[35] = tested on: SR leukemia
[36] = tested on: HCT-15 colon
[37] = tested on: OVCAR-4 ovarian
[38] = tested on: CAKI-1 renal
[39] = tested on: TK-10 renal
[40] = tested on: KM12 colon
[41] = tested on: EKVX NSCLC
[42] = tested on: COLO 205 colon
[43] = tested on: HOP-92 NSCLC
[44] = tested on: UACC-62 melanoma
[45] = tested on: NCI-H226 lung
[46] = tested on: A498 renal
[47] = tested on: MCF7 breast
[48] = tested on: OVCAR-8 ovarian
[49] = tested on: HT29 colon
[50] = tested on: NCI-H23 lung
[51] = tested on: IGROV1 ovarian
[52] = tested on: HL-60(TB) leukemia
[53] = tested on: SF-295 CNS

Compound: O=c1[nH]c(Nc2ccc(Cl)cc2)nc2nc[nH]c12
- TGI [1]: > 100 µM
- TGI [2]: > 100 µM
- TGI [3]: > 100 µM
- TGI [4]: > 100 µM
- TGI [5]: > 100 µM
- TGI [6]: > 100 µM
- TGI [7]: > 100 µM
- TGI [8]: > 100 µM
- TGI [9]: > 100 µM
- TGI [10]: > 100 µM
- TGI [11]: > 100 µM
- TGI [12]: > 100 µM
- TGI [13]: > 100 µM
- TGI [14]: > 100 µM
- TGI [15]: > 100 µM
- TGI [16]: > 100 µM
- TGI [17]: > 100 µM
- TGI [18]: > 100 µM
- TGI [19]: > 100 µM
- TGI [20]: > 100 µM
- TGI [21]: > 100 µM
- TGI [22]: > 100 µM
- TGI [23]: > 100 µM
- TGI [24]: > 100 µM
- TGI [25]: > 100 µM
- TGI [26]: > 100 µM
- TGI [27]: 92.2 µM
- TGI [28]: > 100 µM
- TGI [29]: > 100 µM
- TGI [30]: > 100 µM
- TGI [31]: > 100 µM
- TGI [32]: > 100 µM
- TGI [33]: > 100 µM
- TGI [34]: > 100 µM
- TGI [35]: > 100 µM
- TGI [36]: > 100 µM
- TGI [37]: > 100 µM
- TGI [38]: > 100 µM
- TGI [39]: > 100 µM
- TGI [40]: > 100 µM
- TGI [41]: > 100 µM
- TGI [42]: > 100 µM
- TGI [43]: > 100 µM
- TGI [44]: > 100 µM
- TGI [45]: > 100 µM
- TGI [46]: > 100 µM
- TGI [47]: > 100 µM
- TGI [48]: > 100 µM
- TGI [49]: > 100 µM
- TGI [50]: > 100 µM
- TGI [51]: > 100 µM
- TGI [52]: > 100 µM
- TGI [53]: > 100 µM
